Structures can show the parent of a compound that is named as a salt.
How the values were obtained:
[1] = Cytotoxicity experiments of the anti-HBV test (Cell-titer Blue); format: cell-based; details: human, HepG2.2.15 cells, six days after treatment
Procedure: Cytotoxicity experiments: the arrangement of compounds on plate and compound-treatment process were the same as that of […] activity. Six days after the cells were treated by compounds, the cell activity was tested. Cell-titer Blue reagent was added to each well, the cells were incubated at 37° C. for 3 hours, and fluorescence values were read (560Ex/590 Em). The data were analyzed and the relative cell viability was calculated:
The percentage of cell viability was calculated using the following formula: % cell viability=(fluorescence reading of sample−fluorescence reading of culture control)/(fluorescence reading of DMSO control−fluorescence reading of culture control)×100.
Finally, the CC50 value of the compounds were calculated by the GraphPad Prism software.

[2] = tested on: HBV; assay: Detection of anti-HBV activity in vitro (HepG2.2.15 cells, HBV DNA by quantitative PCR); format: cell-based; details: Hepatitis B virus, HBV DNA in supernatant on the eighth day, read-out: HBV activity and cytotoxicity data EC50
Procedure: Anti-cell viability assay: in vitro anti-hepatitis b virus activity of Example compounds was tested in HepG2.2.15 cells with TDF as a positive control compound. Cells were seeded into a 96-well plate on the first day; the compounds were added to treat the cells on the next day; and a new culture medium containing the compounds was replaced on the fifth day. On the eighth day, the supernatant was collected for DNA extraction. The content of HBV DNA was detected by quantitative PCR. Both test compound and TDF were subjected to a 3-fold serial dilution to get 8 concentration points in duplicate. The final concentration of DMSO in the culture medium was 0.5%. The formula for calculating the percentage of inhibition is as follows: Inhibition rate=(1−copy number of HBV in sample/copy number of HBV in DMSO control group)×100%

[3] = tested on: HIV-1; assay: Detection of in vitro anti-HIV activity (HIV-1 infected MT-4 cells, CellTiter-glo); format: cell-based; details: Human immunodeficiency virus 1, MT4, 120 h, 5 days, read-out: HIV activity and cytotoxicity data EC50
Procedure: Compound treatment: the test compounds and the reference compounds were 2-fold diluted with DMSO and added to the cell culture plate. The test compounds and the reference compounds were tested at 8 concentrations in duplicate.

[4] = Cytotoxicity assay in uninfected MT-4 cells (CellTiter-glo); format: cell-based; details: human, read-out: HIV activity and cytotoxicity data CC50
Procedure: The data was analyzed by GraphPad Prism software, and the curve was fitted and EC50 and CC50 values were calculated. EC50 refers to the effective concentration that inhibits 50% virus production, 50% virus infectivity, or 50% virus-induced cellular effects. CC50 refers to the inhibitory concentration that reduces the cell growth or viability of uninfected cells by 50%.
Viral infection and cell treatment: HIV-1 and MT-4 cells were co-incubated at 37° C., in an incubator with 5% CO2 for 1 h. The infected cells were then seeded in a cell culture plate at a certain density. The final concentration of DMSO in the cell culture medium was 0.5%. The cells were incubated at 37° C., in an incubator with 5% CO2 for 5 days. The cells tested in the cytotoxicity assay were uninfected MT-4 cells, and other test conditions were with the same as that of the antiviral activity assay.
The activity assay of the cell: the cell viability was tested by using cell viability assay reagent CellTiter-glo (Promega). The raw data was used for calculating the anti-HIV-1 activity and cytotoxicity of the Compounds.

[5] = Liver microsomal metabolism experiment, human liver microsomes; format: in vitro ADME; details: pH 7.4, 1 μM compound, 0.5 mg/mL protein, NADPH
Procedure: (§1) Microsomal experiments: human liver microsomes: 0.5 mg/mL, Xenotech; rat liver microsomes: 0.5 mg/mL, Xenotech; coenzyme (NADPH/NADH): 1 mM, Sigma Life Science; magnesium chloride: 5 mM, 100 mM phosphate buffer (pH 7.4).
(§2) Preparation of stock solution: powder of Example compounds were precisely weighed and dissolved in DMSO to 5 mM.
(§3) Preparation of phosphate buffer (100 mm, pH 7.4): 0.5M pre-formulated potassium dihydrogen phosphate (150 ml) and 0.5M potassium hydrogen phosphate (700 ml) were mixed well. The pH of the mixture was then adjusted to 7.4 with 0.5M potassium hydrogen phosphate solution. The resulting solution was 5-fold diluted with ultrapure water before use, and magnesium chloride was added to the solution, affording a phosphate buffer (100 mm), containing potassium phosphate (100 mM), magnesium chloride (3.3 mM), pH 7.4. […]
(§4) Data analysis: The peak area of the corresponding compounds and internal standard was detected by LC-MS/MS system, and the peak area ratio of compounds to internal standard was calculated. The slope was measured by plotting the natural log of the percentage of the remaining amount of the compounds versus time, and t1/2 and CLint were calculated according to the following formula, where V/M is equal to 1/protein concentration.

[6] = Liver microsomal metabolism experiment, rat liver microsomes; format: in vitro ADME; details: SD, pH 7.4, 1 μM compound, 0.5 mg/mL protein, NADPH
Procedure: as §1, §2, §3, §4

[7] = relative to TDF; cited from earlier work
[8] = tested on: immune cells; details: relative to TDF; cited from earlier work

Compound	CC50 at 6 days [1] [µM]	EC50 [2] [µM]	EC50 [3] [µM]	CC50 at 5 days [4] [µM]	microsomal CLint at 1 μM ([5]; read-out: Human liver microsome experiment CLint) [µL/min/mg]	half-life at 1 μM ([5]; read-out: Human liver microsome experiment t1/2(min)) [min]	microsomal CLint at 1 μM ([6]; read-out: Rat liver microsome experiment CLint) [µL/min/mg]	half-life at 1 μM ([6]; read-out: Rat liver microsome experiment t1/2(min)) [min]	concentration of TFV in plasma metabolized by TAF, lower than that of TDF [7] [%]	concentration of TFV in immune cells metabolized by TAF, times higher than that of TDF [8] [times]
CCCCCCCCCCCCCCCCS(=S)CCO[P@@](=O)(CO[C@H](C)Cn1cnc2c(N)ncnc21)OCOC(=O)OC(C)C (single isomer, unassigned) [Compound T-3-1]	> 50	0.1 to 0.4	≤ 0.005	0.1 to 0.5						
CCCCCCCCCCCCCCCCS(=S)CCO[P@](=O)(CO[C@H](C)Cn1cnc2c(N)ncnc21)OCOC(=O)OC(C)C (single isomer, unassigned) [Compound T-3-2]	> 50	0.1 to 0.4	≤ 0.005	0.1 to 0.5	71	19.5	54.4	25.5		
CC(C)OC(=O)[C@H](C)N[P@](=O)(CO[C@H](C)Cn1cnc2c(N)ncnc21)Oc1ccccc1 [TAF, Tenofovir Alafenamide Fumarate]									90	4

Reference: US11389463B2, “Antiviral nucleoside reverse transcriptase inhibitor” (priority 2017, dated 2022)
